The values that follow are results of earlier work, collected in patent US7455864B2, “Melatonin-based composition for improved sleep” (Iomedix Development International Srl, priority 2007, dated 2008).

Series [1] relates to humans. Particulars: transdermal absorption.
Series [2] relates to humans. The note with it: melatonin supplementation in humans.
Series [3] deals with humans. The note with it: melatonin supplementation in humans. This is another data set of the same source.

Consider `C=CC(C)(O)CCC=C(C)C` (stereo not shown) [linalool], for which, in series [1], the blood pressure result is “reduce” and the skin temperature result is “reduce”.
Turning to `COc1ccc2[nH]cc(CCNC(C)=O)c2c1` [Melatonin], the “treatment of jet lag” value in series [2] is “efficacious for treating jet lag”. Moreover, in series [3], the onset of sleep entry is “hastening the onset of sleep”.
